Measurements from PMC11973759 (Journal for Immunotherapy of Cancer, 2025).

Tested on: M2 macrophages
Format: cell-based, human
Conditions: inhibitor 30 min, TB511 1 µM 1 h, 24 h fresh medium, n=3

| SMILES | Effect of inhibitor on TB511-induced apoptosis (CCK8) |
| --- | --- |
| CN(C)CCCN1c2ccccc2Sc2ccc(Cl)cc21 [CPZ, chlorpromazine] | decreasing TB511-induced apoptosis |
| C=C1[C@@H](C)[C@H]2[C@H](Cc3ccccc3)NC(=O)[C@]23[C@H](OC(C)=O)/C=C/[C@@](C)(O)C(=O)[C@@H](C)C/C=C/[C@H]3[C@@H]1O [CyD, cytochalasin D] | decreasing TB511-induced apoptosis |
